Laboratory results published in patent US5783700A, “Quinolic acid derivatives” (priority 1997, dated 1998).
“Also recorded” adds a separate entry of the source.

Key:
[1] = Rotorod test for drug induced neurological deficit (neurotoxicity), ip; assay type: in vivo, male Carworth Farms no. 1 mice; conditions: for Rotorod: effective or [maximum ineffective] intraperitoneal dose: neurotoxicity, 30 min or 4 hr, 30, 100, 300 mg/kg, bracketed = maximum ineffective dose (given as >), unbracketed = effective (neurotoxic) dose (=)
Description: (§1) Biological Testing--Compounds were screened for anticonvulsant activity in male Carworth Farms no. 1 mice. The maximal electroshock (MES), subcutaneous Metrazol (pentylenetetrazole) (Met), and threshold tonic extension (TTE) tests were used to evaluate compounds for anticonvulsive activity. A rotorod protocol was used to determine neurotoxicity. Solutions for injection were prepared in 30% polyethylene glycol 400. Except for the TTE tests, animals were dosed ip at two different time periods: either 30 min. or 4 hr prior to testing. At each time period, three groups of four mice were tested at the following dose levels: 30, 100, and 300 mg/kg. This treatment protocol was followed for MES, Met, and rotorod testing.
Animals were tested for drug induced neurological deficit using a rotorod. Either 30 min. or 4 hr after treatment, the animal was placed on a 1-inch diameter knurled plastic rod rotating at 6 rpm. Neurological deficit was defined as the failure of the animal to remain on the rod for 1 min.

MES induced seizures = experiment: Maximal electroshock (MES) anticonvulsant test, ip; assay type: in vivo, male Carworth Farms no. 1 mice
Description: as §1
(§2) Maximal electroshock (MES) induced seizures were elicited with a 60 cycle alternating current of 50 mA intensity (five to seven times the intensity necessary to evoke minimal electroshock threshold seizures). Current was delivered via corneal electrodes for 0.2 sec. A drop of 0.9% saline was instilled in the eye prior to application of the electrodes. Abolition of the hindlimb tonic extension component of the seizure was defined as protection.

TTE seizure = experiment: Threshold tonic extension (TTE) test, ip; assay type: in vivo, male Carworth Farms no. 1 mice; conditions: for minimal effective dose at 100 mg/kg: ip 100 mg/kg, 1/4 to 4 hr post treatment, 12.5 mA, bracketed = maximum ineffective dose (given as >), unbracketed = effective dose (=), read-out: TTE: effective or [maximum ineffective] intraperitoneal dose
Description: as §1
The threshold tonic extension (TTE) test is similar to the MES screen but uses a lower level of electrical current (Piredda et al., 1985). The lower current makes the test more sensitive but less discriminate than the MES screen. Twenty mice were pretreated ip with 100 mg/kg of the test compound. At time intervals of 1/4, 1/2, 1, 2, and 4 hr post treatment, 4 mice were challenged with 12.5 mA of electrical current for 0.2 sec. via corneal electrodes. This current produces a TTE seizure in untreated animals. Protection was defined as an absence of seizures. Additional TTE testing was conducted on compound 10 to determine the ED50 value for the observed protective effect. In this case, 6 groups containing either 8 or 16 animals were injected ip and tested two hours following treatment. Each group received a specified dose ranging from 20-500 mg/kg. An ED50 value was determined from a log dose-response plot of the resulting data.

GABA-A neuroreceptor = experiment: [^3 H]-muscimol competition binding; assay type: rat (cerebral cortex membranes); conditions: 5 nM [^3 H]-muscimol, compound 10 uM to 10 nM
Description: Compound 10 was screened for activity at the GABA-A neuroreceptor complex using [^3 H]-muscimol (20.0 Ci/mmol), also from DuPont-New England Nuclear. The filtration method reported by Williams and Risley (1979) was used for this assay. Membranes were initially prepared as described previously and frozen at -20° C. in distilled water for 24 hr. After thawing, membranes were resuspended in 50 mM Tris-acetate buffer (pH 7.0) which contained 0.1% (v/v) saponin (Sigma). The tissue was centrifuged at 48,000×g for 20 min. and the resulting pellet was resuspended in 30 volumes of 50 mM Tris-acetate buffer (pH 7.0) containing 100 mM KCI. The tissue was again centrifuged at 48,000×g for 20 min. After decanting the supernatant, the pellet was covered with fresh KCI containing Tris-acetate buffer and frozen for 24 hr.
On the day of the assay, the tissue was thawed and resuspended in 30 volumes of 50 mM Trisacetate (pH 7.0) with 100 mM KCI and centrifuged at 48,000×g for 20 min. This washing procedure was repeated twice. The final pellet was resuspended in 32 mL buffer. Membranes were incubated in a final volume of 1 mL with 5 nM [^3 H]-muscimol at 4° C. for 30 min. Samples were run in triplicate employing six different concentrations of compound 10 ranging from 10 uM to 10 nM. The assay was performed in duplicate. Each sample, including controls, contained 1.0% dimethyl sulfoxide (DMSO) to insure solubilization of the test compound. Nonspecific binding was determined in the presence of 200 uM gamma-aminobutyric acid (GABA) and subtracted. Binding was terminated using a Brandel M-24C cell harvester employing rapid filtration through GF/C glass fiber filters presoaked in 0.1% (v/v) polyethylenimine. Filters were washed with 1 mL cold water. Radioactivity bound to the filters was determined by scintillation counting.

[2] = target: T1, glycine binding site on the NMDA receptor (Rattus norvegicus, UniProt P35439); experiment: Inhibition of [^3 H]-5,7-dichlorokynurenic acid specific binding; assay type: rat (cerebral cortex membranes); conditions: for Inhibition of [^3 H]-5,7-Dichlorokynurenic Acid Binding, % of Control: 10 uM test compound, 15 min, 10 µM; for Inhibition of [^3 H]-5,7-Dichlorokynurenic Acid Binding, % of Control / remaining activity at 10 µM: 10 nM radioligand, pH 7.4, mean ± SEM of three determinations; for remaining activity at 10 µM: 0.25 h, pH 7.4, 10 uM test compound, read-out: Inhibition of [^3 H]-5,7-Dichlorokynurenic Acid Binding, % of Control; for [^3 H]-5,7-dichlorokynurenic acid displacement: 10 uM
T1 construct: Membranes were prepared from rat cerebral cortex; from tissue; host or cells: rat cerebral cortex, "buffy coat" membrane fragments
Description: Binding Studies--The procedure of Baron et al. (1991) was used to assay for the inhibition of specific binding at the glycine binding site on the NMDA receptor. The labeled ligand used in this assay was [^3 H]-5,7-dichlorokynurenic acid (15.8 Ci/mmol) from DuPont-New England Nuclear (Boston, Mass.). […] Inhibition of specific binding was determined for selected compounds at a concentration of 10 uM using "buffy coat" membrane fragments (Jones et al., 1989). Membranes were prepared from rat cerebral cortex and assays were conducted in 50 mM HEPES-KOH buffer (Sigma, St. Louis, Mo.) at pH 7.4. Membranes were incubated in a final volume of 1 mL containing 10 nM [^3 H]-5,7-dichlorokynurenic acid. Incubation was continued for 15 min. at 4° C. Nonspecific binding was determined in the presence of 1 mM glycine and subtracted. Binding was terminated by centrifugation at 48,000×g for 10 min. Each of the resultant pellets was washed rapidly with 1 mL ice water and solubilized with 1 mL of a tissue solubilizer (Solvable, DuPont NEN). The solubilized samples were each dissolved in 10 mL 3a70B Complete Counting Cocktail (RPI, Mount Prospect, Ill.). Membrane bound radioactivity was determined using a Beckman LS-5000TD liquid scintillation counter. This screening procedure was conducted in triplicate in three separate tests. Results are presented as percent of control (±SEM, standard error of the mean).

[3] = test system: NMDA-associated PCP binding site; experiment: [^3 H]-TCP binding displacement; assay type: rat (cerebral cortex membranes)
Description: Compound 10 was also screened for activity at the NMDA-associated PCP binding site, and, additionally, for activity at the GABA-A neuroreceptor. To determine possible effects on PCP binding, N-(1-(2-thienyl)cyclohexyl)-3,4-[^3 H]-piperidine ("[^3 H]-TCP") binding was assayed using the technique of Johnson et al. (1988). TCP is the thienyl derivative of PCP. Binding of [^3 H]-TCP to the NMDA receptor complex can be modulated by glycine agonists and antagonists (Benavides et al., 1988). DuPont-New England Nuclear was the source for [^3 H]-TCP (44.5 Ci/mmol). Membranes were prepared as described above. Assays were conducted in 5 mM Tris-acetate (pH 7.4) buffer containing 10 uM L-glutamic acid and 3 uM glycine. […] Nonspecific binding was determined in the presence of 30 uM PCP and subtracted. Samples were incubated at 24° C. for 1 hr. Binding was terminated using a Brandel M-24C cell harvester employing rapid filtration through GF/C glass filters presoaked in 0.1%(v/v)polyethylenimine. Filters were washed rapidly with two 1 mL aliquots of ice-cold water. Samples were run in triplicate at six different drug concentrations ranging from 1 uM to 5 nM. The experiment was repeated with buffer containing 0.1 mM L-glu and no added glycine. Two separate assays were conducted for each experiment.

[4] = Overall in vivo activity (MES, Met, TTE, rotorod); parameters: species or system male Carworth Farms no. 1 mice; conditions: ip
Description: as §1
as §2, with “protection. […]” for “protection.”
The threshold tonic extension (TTE) test is similar to the MES screen but uses a lower level of electrical current (Piredda et al., 1985). […] An ED50 value was determined from a log dose-response plot of the resulting data. […]

Row | SMILES | Rotorod: effective or [maximum ineffective] intraperitoneal dose [1] [mg/kg] | minimal effective dose at 100 mg/kg (TTE seizure; Mus musculus) [mg/kg] | remaining activity at 10 µM [2] [%] | other results
1 | CN(C)C(=O)Nc1cc(C(=O)O)nc2cc(Cl)cc(Cl)c12 [Compound 5] | > 300 |  |  | MES activity (MES induced seizures): demonstrated activity
2 | CCN(CC)C(=O)Nc1cc(C(=O)O)nc2cc(Cl)cc(Cl)c12 [Compound 3] | 300 | > 100 |  | neurotoxicity in rotorod test [1]: neurotoxic
3 | COC(=O)c1cc(NC(=O)N(c2ccccc2)c2ccccc2)c2c(Cl)cc(Cl)cc2n1 [Compound 10, 2-methyl carboxylate-5,7-dichloro-4-[[(diphenylamino)-carbonyl]amino]-quinoline] | > 300 | 100 | 42 ± 7 | effect on [^3 H]-muscimol binding (GABA-A) (GABA-A neuroreceptor): No significant difference from control; also recorded: no effect; also recorded: No significant effects were observed; effect on [^3 H]-muscimol binding (GABA-A) (GABA-A neuroreceptor; listed as 2-methyl carboxylate-5,7-dichloro4-[[(diphenylamino)-carbonyl]amino]-quinoline): tested negative; effect on [^3 H]-muscimol binding (GABA-A) (GABA-A neuroreceptor; listed as 2-methyl carboxylate-5,7-dichloro-4-[[(diphenylamino)-carbonyl]amino]-quinoline): No significant effects were observed; ED50 (TTE seizure; Mus musculus, 2 h, ip, two hours following treatment, doses 20-500 mg/kg): 134 mg/kg; S.E. of slope of TTE dose-response (TTE seizure; log dose-response plot, ip): 0.44; slope of TTE dose-response (TTE seizure; log dose-response plot, ip): 1.9; Inhibition of [^3 H]-5,7-Dichlorokynurenic Acid Binding, % of Control [2]: 42 % of Control; effect on [^3 H]-TCP binding ([3]; 10 uM L-glutamic acid and 3 uM glycine, compound 1 uM to 5 nM): No significant effect; effect on [^3 H]-TCP binding ([3]; 10 uM L-glutamic acid and 3 uM glycine, compound 1 uM to 5 nM, listed as 2-methyl carboxylate-5,7-dichloro-4-[[(diphenylamino)-carbonyl]amino]-quinoline): No significant effect; effect on [^3 H]-TCP binding ([3]; L-glutamate, no added glycine, compound 5 uM to 10 nM): no significant effect; PCP activity at the NMDA receptor ([3]; summary statement): tested negative
4 | O=C(O)c1cc(NC(=O)N(c2ccccc2)c2ccccc2)c2c(Cl)cc(Cl)cc2n1 [Compound 9] | > 300 | 100 | 25 ± 5 | Inhibition of [^3 H]-5,7-Dichlorokynurenic Acid Binding, % of Control [2]: 20-30 % of Control
5 | CCOC(=O)c1cc(NC(=O)N(c2ccccc2)c2cccc(OC)c2)c2c(Cl)cc(Cl)cc2n1 [Compound 11] | > 300 | 100 |  | TTE anticonvulsant activity (TTE seizure; ip, 100 mg/kg): active
6 | CCCCN(CCCC)C(=O)Nc1cc(C(=O)O)nc2cc(Cl)cc(Cl)c12 [Compound 7] | > 300 | 100 | 20 ± 11 | Inhibition of [^3 H]-5,7-Dichlorokynurenic Acid Binding, % of Control [2]: 20-30 % of Control
7 | CCOC(=O)c1cc(NC(=O)N(c2ccccc2)c2ccccc2)c2c(Cl)cc(Cl)cc2n1 [Compound 8] | > 300 | 100 | 77 ± 7 | 
8 | CCCCN(CCCC)C(=O)Nc1cc(C(=O)OCC)nc2cc(Cl)cc(Cl)c12 [Compound 6] | > 300 | 100 | 76 ± 6 | 
9 | COc1cccc(N(C(=O)Nc2cc(C(=O)O)nc3cc(Cl)cc(Cl)c23)c2ccccc2)c1 [Compound 12] | > 300 |  |  | MES activity (MES induced seizures): demonstrated activity
10 | CCOC(=O)c1cc(NC(=O)N(C)C)c2c(Cl)cc(Cl)cc2n1 [Compound 4] | > 300 | > 100 | 57 ± 1 | [^3 H]-5,7-dichlorokynurenic acid displacement [2]: active; in vivo / CNS anticonvulsant activity [4]: no in vivo activity; also recorded: no CNS activity; also recorded: did not have any in vivo effects
11 | CCOC(=O)c1cc(NC(=O)N(CC)CC)c2c(Cl)cc(Cl)cc2n1 [Compound 2] | > 300 | 100 |  | 
12 | CCN(CC)C(=O)Nc1cc(C(=O)OC)nc2cc(Cl)cc(Cl)c12 [Compound 1] | > 300 |  | 58 ± 8 | [^3 H]-5,7-dichlorokynurenic acid displacement [2]: active; in vivo / CNS anticonvulsant activity [4]: no in vivo activity; also recorded: no CNS activity; also recorded: did not have any in vivo effects
